Test results: US8697656B2, “Compounds, in particular peptides, compositions comprising them and cosmetic and dermo-pharmaceutical uses” (SEDERMA, priority 2009, dated 2014)
Non-standard residues stand in square brackets, D forms with d. Residues, ends and D or L forms follow the SMILES beside them. *: point of attachment. Met(O2) = CS(=O)(=O)CC[CH](N)C(=O)O; Palmitoyl = CCCCCCCCCCCCCCCC(=O)*; Ava = NCCCCC(=O)O

Key:
[1] = system: dermal NHF; experiment: Immunostaining method for collagen I on dermal NHF (Table 7); assay type: cell-based, human; details: Table 7 Test 2
Source text: Table 7 Showing % Differences in Collagen I in the Dermis Compared to the Control for Dioxygenated Peptide Compounds According to the Immunostaining Method or to ELISA Test on Dermal NHF

[2] = system: Normal human dermal fibroblasts (NHF); experiment: ELISA test on normal human dermal fibroblasts (NHF): macromolecules in culture supernatants; assay type: cell-based; details: Table 7 Test 1
Description: ELISA Test on Normal Human Dermal Fibroblasts (NHF)
This test examines the dermal molecules.
Normal human dermal fibroblasts are cultured in multi-well plates. The cells either are or are not placed in contact with the test substances for 3 days. The culture supernatants are removed and the quantity of macromolecules present (collagen I, fibronectin, collagen IV and hyaluronic acid) is assayed by ELISA.

CCCCCCCCCCCCCCCC(=O)NC(CCS(C)(=O)=O)C(=O)NCCCCC(N)=O (stereo not shown) [Pal-MO2-Ava-NH2]
Collagen I in the dermis, Test 2 (% difference compared to the control) ([1]; 2 ppm): +375% | Collagen I in the dermis, Test 2 (% difference compared to the control) ([1]; 4 ppm): +582% | Collagen I in the dermis, Test 2 (% difference compared to the control) ([1]; 6 ppm): +461%

CCCCCCCCCCCCCCCC(=O)NCCCCC(=O)NC(CCS(C)(=O)=O)C(N)=O (stereo not drawn) [Pal-Ava-MO2-NH2]
Collagen I in the dermis, Test 2 (% difference compared to the control) ([1]; 2 ppm): +495% | Collagen I in the dermis, Test 2 (% difference compared to the control) ([1]; 4 ppm): +667% | Collagen I in the dermis, Test 2 (% difference compared to the control) ([1]; 6 ppm): +557%

Pal-K-MO2-Ava-K-OH: Dioxygenated peptide compound, SEQ ID NO 36 (Palmitoyl-K[Met(O2)][Ava]K-OH; SMILES CCCCCCCCCCCCCCCC(=O)N[C@@H](CCCCN)C(=O)N[C@@H](CCS(C)(=O)=O)C(=O)NCCCCC(=O)N[C@@H](CCCCN)C(=O)O)
Collagen I in the dermis, Test 1 (% difference compared to the control) ([2]; 2 ppm): +75%

Pal-K-F-MO2-K-OH: Dioxygenated peptide compound, SEQ ID NO 31 (Palmitoyl-KF[Met(O2)]K-OH; SMILES CCCCCCCCCCCCCCCC(=O)N[C@@H](CCCCN)C(=O)N[C@@H](Cc1ccccc1)C(=O)N[C@@H](CCS(C)(=O)=O)C(=O)N[C@@H](CCCCN)C(=O)O)
Collagen I in the dermis, Test 1 (% difference compared to the control) ([2]; 4 ppm): +80% | Collagen I in the dermis, Test 1 (% difference compared to the control) ([2]; 6 ppm): +81%

Pal-K-MO2-T-K-OH: Dioxygenated peptide compound, SEQ ID NO 33 (Palmitoyl-K[Met(O2)]TK-OH; SMILES CCCCCCCCCCCCCCCC(=O)N[C@@H](CCCCN)C(=O)N[C@@H](CCS(C)(=O)=O)C(=O)N[C@H](C(=O)N[C@@H](CCCCN)C(=O)O)[C@@H](C)O)
Collagen I in the dermis, Test 1 (% difference compared to the control) ([2]; 4 ppm): +45% | Collagen I in the dermis, Test 1 (% difference compared to the control) ([2]; 6 ppm): +194% | Collagen I in the dermis, Test 2 (% difference compared to the control) ([1]; 4 ppm): +192% | Collagen I in the dermis, Test 2 (% difference compared to the control) ([1]; 6 ppm): +217%

CCCCCCCCCCCCCCCC(=O)NC(CCS(C)(=O)=O)C(=O)NC(CCCCN)C(=O)O (stereo not shown) [Pal-MO2-K-OH] (Palmitoyl-[Met(O2)]-Lys-OH; configuration not given here)
Collagen I in the dermis, Test 2 (% difference compared to the control) ([1]; 2 ppm): +270% | Collagen I in the dermis, Test 2 (% difference compared to the control) ([1]; 4 ppm): +457% | Collagen I in the dermis, Test 2 (% difference compared to the control) ([1]; 6 ppm): +226%

Pal-K-T-MO2-K-OH: Dioxygenated peptide compound, SEQ ID NO 30 (Palmitoyl-KT[Met(O2)]K-OH; SMILES CCCCCCCCCCCCCCCC(=O)N[C@@H](CCCCN)C(=O)N[C@H](C(=O)N[C@@H](CCS(C)(=O)=O)C(=O)N[C@@H](CCCCN)C(=O)O)[C@@H](C)O)
Collagen I in the dermis, Test 1 (% difference compared to the control) ([2]; 4 ppm): +75% | Collagen I in the dermis, Test 1 (% difference compared to the control) ([2]; 6 ppm): +161% | Collagen I in the dermis, Test 2 (% difference compared to the control) ([1]; 2 ppm): +273% | Collagen I in the dermis, Test 2 (% difference compared to the control) ([1]; 4 ppm): +341% | Collagen I in the dermis, Test 2 (% difference compared to the control) ([1]; 6 ppm): +262%

Pal-K-Ava-MO2-K-OH: Dioxygenated peptide compound, SEQ ID NO 35 (Palmitoyl-K[Ava][Met(O2)]K-OH; SMILES CCCCCCCCCCCCCCCC(=O)N[C@@H](CCCCN)C(=O)NCCCCC(=O)N[C@@H](CCS(C)(=O)=O)C(=O)N[C@@H](CCCCN)C(=O)O)
Collagen I in the dermis, Test 1 (% difference compared to the control) ([2]; 2 ppm): +63% | Collagen I in the dermis, Test 1 (% difference compared to the control) ([2]; 4 ppm): +167%

Pal-MO2-T-K-F-OH: Dioxygenated peptide compound, SEQ ID NO 29
Collagen I in the dermis, Test 1 (% difference compared to the control) ([2]; 4 ppm): +111% | Collagen I in the dermis, Test 1 (% difference compared to the control) ([2]; 6 ppm): +148% | Collagen I in the dermis, Test 2 (% difference compared to the control) ([1]; 2 ppm): +218% | Collagen I in the dermis, Test 2 (% difference compared to the control) ([1]; 4 ppm): +456% | Collagen I in the dermis, Test 2 (% difference compared to the control) ([1]; 6 ppm): +520%

Pal-K-T-F-MO2-NH2: Dioxygenated peptide compound, SEQ ID NO 32 (Palmitoyl-KTF[Met(O2)]-NH2; SMILES CCCCCCCCCCCCCCCC(=O)N[C@@H](CCCCN)C(=O)N[C@H](C(=O)N[C@@H](Cc1ccccc1)C(=O)N[C@@H](CCS(C)(=O)=O)C(N)=O)[C@@H](C)O)
Collagen I in the dermis, Test 1 (% difference compared to the control) ([2]; 4 ppm): +106% | Collagen I in the dermis, Test 1 (% difference compared to the control) ([2]; 6 ppm): +121% | Collagen I in the dermis, Test 2 (% difference compared to the control) ([1]; 2 ppm): +267% | Collagen I in the dermis, Test 2 (% difference compared to the control) ([1]; 4 ppm): +420% | Collagen I in the dermis, Test 2 (% difference compared to the control) ([1]; 6 ppm): +400%

Pal-K-MO2-F-K-OH: Dioxygenated peptide compound, SEQ ID NO 34 (Palmitoyl-K[Met(O2)]FK-OH; SMILES CCCCCCCCCCCCCCCC(=O)N[C@@H](CCCCN)C(=O)N[C@@H](CCS(C)(=O)=O)C(=O)N[C@@H](Cc1ccccc1)C(=O)N[C@@H](CCCCN)C(=O)O)
Collagen I in the dermis, Test 1 (% difference compared to the control) ([2]; 4 ppm): +91%
